Data on three compounds can be found in patent US20050267120A1 (Boehringer Ingelheim International GmbH, priority 2004, published 2005).

One experiment deals with T1, hMCH-1R (Homo sapiens, UniProt Q99705).
T1 construct: expressed in transfected cells; host or cells: CHO/Galpha16 cells (membrane preparation)
Nature of the experiment: MCH-1 receptor binding test. As to conditions: 125I-MCH binding, membranes of CHO/Galpha16 cells stably transfected with hMCH-1R. The protocol: 200 μL of this membrane fraction (contains 1 to 3 μg of protein) are incubated for 60 minutes at ambient temperature with 100 pM of ^125I-tyrosyl melanin concentrating hormone (^125I-MCH commercially obtainable from NEN) and increasing concentrations of the test compound in a final volume of 250 μL. After the incubation the reaction is filtered using a cell harvester through 0.5% PEI treated fiberglass filters (GF/B, Unifilter Packard). The membrane-bound radioactivity retained on the filter is then determined after the addition of scintillator substance (Packard Microscint 20) in a measuring device (TopCount of Packard). […] The analysis of the concentration binding curve is carried out on the assumption of one receptor binding site.

The test system of another experiment is rats. As to conditions: cited from earlier work.
The conditions of experiment [1]: long term trials; cited from earlier work.

For orientation: IC50 means the concentration that inhibits the measured activity by half. Low values mean greater potency in that assay, high ones weaker potency in that assay.

T1 sequence (Q99705 whole entry): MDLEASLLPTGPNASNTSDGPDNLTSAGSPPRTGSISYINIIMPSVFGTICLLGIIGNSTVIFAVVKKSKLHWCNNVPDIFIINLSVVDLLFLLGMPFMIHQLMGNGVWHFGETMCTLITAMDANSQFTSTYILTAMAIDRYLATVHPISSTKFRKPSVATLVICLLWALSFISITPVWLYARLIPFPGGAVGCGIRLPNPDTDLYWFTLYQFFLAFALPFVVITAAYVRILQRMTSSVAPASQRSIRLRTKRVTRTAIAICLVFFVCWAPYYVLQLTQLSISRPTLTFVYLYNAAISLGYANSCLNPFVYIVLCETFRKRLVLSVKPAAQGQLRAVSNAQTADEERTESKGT

At hMCH-1R, `OC[C@@H]1CCCN1CC1CCc2cc(C#Cc3ccc(-c4ccc(Cl)cc4)cn3)ccc2O1` (stereo partly shown) [Example 1.1] came in with an IC50 of 6 nM. At hMCH-1R, `CC1CCN(Cc2cc(=O)c3cc(C#Cc4ccc(-c5ccc(Cl)cc5)cn4)ccc3o2)CC1` [Example 2.1, 6-[5-(4-chlorophenyl)pyridin-2-ylethynyl]-2-(4-methylpiperidin-1-ylmethyl)-1-benzopyran-4-one] displayed an IC50 of 3 nM. `COCC1=C(C(=O)OC)[C@H](c2ccc(F)c(F)c2)N(C(=O)NCCCN2CCC(c3cccc(NC(C)=O)c3)CC2)C(=O)N1` [SNAP-7941]: the “effects in behavioral experiments” value in the experiment with rats is “anxiolytic and antidepressant effects”. Also, the body weight change entry in experiment [1] is “lose significant amounts of weight”.
